From publication PMC12704303, “Production of RPSL12-TetR fusion and development of two multiplex methods for simultaneous detection of tetracyclines and aminoglycosides in pork” (Food Chemistry: X, 2025)
≈ marks a conversion by molar mass, not a printed value.

System: T1, RPSL12-TetR
T1 construct: gene rpsL; single-chain fusion RPSL12 (372 bp) - linker (45 bp) - TetR (636 bp), total 1053 bp, in pET-32a(+), His-tag, expressed in E. coli host, Ni-NTA from soluble supernatant, about 41 kDa
Assay: microplate direct competition chemiluminescence, coated fusion protein, MC-HRP tracer
Type: binding, Escherichia coli
Conditions: competition with minocycline-HRP conjugate (TetR part); blank pork extract; 37 °C, 30 min
From the text: microplate direct competition chemiluminescence, coated fusion protein, MC-HRP tracer on RPSL12-TetR

| SMILES | IC50 |
| --- | --- |
| CN(C)[C@@H]1C(=O)C(C(N)=O)=C(O)[C@@]2(O)C(=O)C3=C(O)c4c(O)ccc(Cl)c4[C@@](C)(O)[C@H]3C[C@@H]12 [CTC] | 0.0344 ng/mL (≈ 0.0718 nM) |
| C[C@H]1c2cccc(O)c2C(=O)C2=C(O)[C@]3(O)C(=O)C(C(N)=O)=C(O)[C@@H](N(C)C)[C@@H]3[C@@H](O)[C@@H]21 [DC] | 0.0395 ng/mL (≈ 0.0889 nM) |
| CN(C)[C@@H]1C(=O)C(C(N)=O)=C(O)[C@@]2(O)C(=O)C3=C(O)c4c(O)ccc(Cl)c4[C@@H](O)[C@H]3C[C@@H]12 [DMC] | 0.0287 ng/mL (≈ 0.0617 nM) |
| CN(C)[C@@H]1C(O)=C(C(=O)NCNCCCC[C@H](N)C(=O)O)C(=O)[C@@]2(O)C(O)=C3C(=O)c4c(O)cccc4[C@@](C)(O)[C@H]3C[C@@H]12 [LMC] | 0.0427 ng/mL (≈ 0.0709 nM) |
| CN(C)c1ccc(O)c2c1C[C@H]1C[C@H]3[C@H](N(C)C)C(O)=C(C(N)=O)C(=O)[C@@]3(O)C(O)=C1C2=O [MC] | 0.0357 ng/mL (≈ 0.078 nM) |
| C=C1c2cccc(O)c2C(O)=C2C(=O)[C@]3(O)C(O)=C(C(N)=O)C(=O)[C@@H](N(C)C)[C@@H]3[C@@H](O)[C@H]12 [MTC] | 0.0418 ng/mL (≈ 0.0945 nM) |
| CN(C)[C@@H]1C(=O)C(C(N)=O)=C(O)[C@@]2(O)C(=O)C3=C(O)c4c(O)cccc4[C@@](C)(O)[C@H]3[C@H](O)[C@@H]12 [OTC] | 0.0402 ng/mL (≈ 0.0873 nM) |
| CN(C)[C@@H]1C(=O)C(C(N)=O)=C(O)[C@@]2(O)C(=O)C3=C(O)c4c(O)cccc4C[C@H]3C[C@@H]12 [SC] | 0.0378 ng/mL (≈ 0.0912 nM) |
| CN(C)[C@@H]1C(=O)C(C(N)=O)=C(O)[C@@]2(O)C(=O)C3=C(O)c4c(O)cccc4[C@@](C)(O)[C@H]3C[C@@H]12 [TC] | 0.038 ng/mL (≈ 0.0855 nM) |
| CN(C)c1cc(NC(=O)CNC(C)(C)C)c(O)c2c1C[C@H]1C[C@H]3[C@H](N(C)C)C(=O)C(C(N)=O)=C(O)[C@@]3(O)C(=O)C1=C2O [TIC] | 0.0414 ng/mL (≈ 0.0707 nM) |

System: T1, RPSL12-TetR
Assay: microplate direct competition chemiluminescence, coated fusion protein, STR-ALP tracer
Type: binding, Escherichia coli
Conditions: competition with streptomycin-ALP conjugate (RPSL12 part); blank pork extract; 37 °C, 30 min
From the text: microplate direct competition chemiluminescence, coated fusion protein, STR-ALP tracer on RPSL12-TetR

| SMILES | IC50 |
| --- | --- |
| NCC[C@H](O)C(=O)N[C@@H]1C[C@H](N)[C@@H](O[C@H]2O[C@H](CN)[C@@H](O)[C@H](O)[C@H]2O)[C@H](O)[C@H]1O[C@H]1O[C@H](CO)[C@@H](O)[C@H](N)[C@H]1O [AMK] | 5.1 ng/mL (≈ 8.71 nM) |
| CCN[C@@H]1C[C@H](N)[C@@H](O[C@H]2O[C@H](CN)CC[C@H]2N)[C@H](O)[C@H]1O[C@H]1OC[C@](C)(O)[C@H](NC)[C@H]1O [ETM] | 17 ng/mL (≈ 35.6 nM) |
| CN[C@@H]1[C@@H](O)[C@@H](O[C@@H]2[C@@H](O)[C@H](O[C@H]3O[C@H](CN)[C@@H](O)[C@H](O)[C@H]3O)[C@@H](N)C[C@H]2NC(=O)[C@@H](O)CN)OC[C@]1(C)O [ISM] | 3.6 ng/mL (≈ 6.32 nM) |
| NC[C@H]1O[C@H](O[C@H]2[C@H](O)[C@@H](O[C@H]3O[C@H](CO)[C@@H](O)[C@H](N)[C@H]3O)[C@H](N)C[C@@H]2N)[C@H](O)[C@@H](O)[C@@H]1O [KAN] | 6.4 ng/mL (≈ 13.2 nM) |
| CNC[C@@H]1CC[C@@H](N)[C@@H](O[C@H]2[C@H](O)[C@@H](O[C@H]3OC[C@](C)(O)[C@H](NC)[C@H]3O)[C@H](N)C[C@@H]2N)O1 [MIM] | 3.8 ng/mL (≈ 8.2 nM) |
| CCN[C@@H]1C[C@H](N)[C@@H](O[C@H]2OC(CN)=CC[C@H]2N)[C@H](O)[C@H]1O[C@H]1OC[C@](C)(O)[C@H](NC)[C@H]1O [NTM] | 16 ng/mL (≈ 33.6 nM) |
| NC[C@@H]1O[C@H](O[C@H]2[C@@H](O)[C@H](O[C@@H]3[C@@H](O)[C@H](N)C[C@H](N)[C@H]3O[C@H]3O[C@H](CO)[C@@H](O)[C@H](O)[C@H]3N)O[C@@H]2CO)[C@H](N)[C@@H](O)[C@@H]1O [PMM] | 5.4 ng/mL (≈ 8.77 nM) |
| CN[C@@H]1[C@H](O)[C@H](NC)[C@H]2O[C@@]3(O)C(=O)C[C@@H](C)O[C@H]3O[C@@H]2[C@H]1O [SPM] | 9.8 ng/mL (≈ 29.5 nM) |
| CN[C@@H]1[C@H](O[C@H]2[C@H](O[C@H]3[C@H](O)[C@@H](O)[C@H](N=C(N)N)[C@@H](O)[C@@H]3N=C(N)N)O[C@@H](C)[C@]2(O)C=O)O[C@@H](CO)[C@H](O)[C@H]1O [STR] | 5.1 ng/mL (≈ 8.77 nM) |
